Measured values taken from BindingDB's records for doi:10.7270/Q2BR8QM3 (Nmmlsc, 2008).

Target: T1, Bcl-2-like protein 2 (Homo sapiens, UniProt Q92843)
T1 sequence (Q92843 whole entry): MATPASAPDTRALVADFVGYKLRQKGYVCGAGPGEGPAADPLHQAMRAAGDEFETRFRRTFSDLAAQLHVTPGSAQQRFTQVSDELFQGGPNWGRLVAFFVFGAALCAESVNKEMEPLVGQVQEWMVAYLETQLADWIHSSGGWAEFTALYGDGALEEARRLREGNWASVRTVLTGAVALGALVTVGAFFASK
Test: modulators of Bim-Bcl-W protein interaction, dose response, biochemical, multiplexed, bead-based flow cytometry, fluorescence (AID 1330)

[1] = inactive by the depositor's call

Row | Compound | EC50 [µM] | EC50 [1] [µM]
1 | CN1CCc2cccc3c2[C@@H]1Cc1ccc(O)c(O)c1-3 | 9.95 | 
2 | CCN(CC)c1ccc(-c2nn3c(-c4cccnc4)nnc3s2)cc1 |  | 12
3 | CCOCCCNc1nc(S)nc2cc(OC)c(OC)cc12 |  | 2.2
4 | COCCNc1[nH]c(=S)nc2cc(OC)c(OC)cc12 |  | 3.86
5 | CN1CCN(C2=C(Cl)C(=O)C(c3cnc(N4CCCCC4)s3)=C(Cl)C2=O)CC1 |  | 0.04
6 | CCOC(=O)c1ccc(Nc2nc(C(=O)OCC)nc3ccccc23)cc1 |  | 2.67
7 | CCOCCCn1c(N)c(C(=O)Nc2sc3c(c2C(=O)OC)CCCC3)c2nc3ccccc3nc21 |  | 1.8
8 | COc1cccc(CN=Nc2nn3cnnc3c3ccccc23)c1O | 0.49 | 
9 | CCN1C(=O)/C(=C/C=C2\C=CN(CC)c3ccccc32)SC1=S |  | 15.9
10 | Cc1ccc(-c2ccc(/C=C/C(=O)c3ccccc3)o2)cc1 |  | 3.56
11 | CCC(/C=C1\Sc2ccc(OC)cc2N1CCO)=C\c1sc2ccc(OC)cc2[n+]1CCO | 22.1 | 
12 | O=S1(=O)N=C(N(CCO)N=C/C=C/c2ccccc2)c2ccccc21 |  | 20.6
13 | COc1ccc(-n2c(=O)c3ccccc3c3ccccc3c2=O)c(OC)c1 |  | 16.3
14 | Cc1nc2ncccn2c1-c1csc(Nc2ccc(O)cc2)n1 | 0.33 | 
15 | COc1cc2nc(=S)n(CCCN3CCOCC3)c(N)c2cc1OC |  | 9.25
16 | CN(C)c1ncc(C2=C(Cl)C(=O)C(N3CCCC3)=C(Cl)C2=O)s1 |  | 0.05
17 | Cc1ccc(C)c(/C=C/C(=O)c2ccccc(=O)c2O)c1 |  | 8.51
18 | O=C(NC1=C(Nc2ccc(Cl)cc2)C(=O)c2ccccc2C1=O)c1ccccc1 |  | 10.1

Row | Compound | EC50 [µM] | EC50 [1] [µM]
19 | CCN(CC)S(=O)(=O)c1cccc(C(=O)NN=Cc2ccc(O)c(O)c2O)c1 | 5.13 | 
20 | CCOC(=O)c1c(NC(C)=O)sc2c(O)c(Br)cc(Br)c12 |  | 40.3
21 | O=C(Nc1ccc2nc(-c3ccco3)c(-c3ccco3)nc2c1)N1CCN(c2ccccn2)CC1 |  | 14.9
22 | O=C(c1ccccc1)c1ccc2nc(-c3ccco3)c(-c3ccco3)nc2c1 |  | 14.8
23 | CCOc1ccccc1CNc1ccc(O)cc1 |  | 2.31
24 | COCCN=c1scc(-c2ccco2)n1N=Cc1ccc(O)c(O)c1O | 1.81 | 
25 | COc1cc2nc(=S)[nH]c(NCCCOC(C)C)c2cc1OC |  | 9
26 | CC1N(C)c2cccc3cccc(c23)N1C [1,2,3-trimethyl-2,3-dihydro-1H-perimidine] |  | 2.26
27 | Cc1ccc(CNc2ccc3c(c2)OCO3)c(C)c1 [1,3-benzodioxol-5-yl(2,4-dimethylbenzyl)amine] |  | 44.2
28 | COCCNC(=S)Nc1cc(OC)c(OC)cc1C#N [1-(2-cyano-4,5-dimethoxy-phenyl)-3-(2-methoxyethyl)thiourea] |  | 14.5
29 | Cc1ccc(C(=O)/C=C/c2ccc(-c3ccc(C)cc3)o2)cc1 [1-p-Tolyl-3-(5-p-tolyl-furan-2-yl)-propenone] |  | 1.02
30 | O=C(NCc1ccccc1)c1ccc2nc(-c3ccco3)c(-c3ccco3)nc2c1 [2,3-bis(furan-2-yl)-N-(phenylmethyl)quinoxaline-6-carboxamide] | 6.03 | 
31 | COc1ccc2nc(-c3ccco3)c(-c3ccco3)nc2c1 [2,3-di-2-furyl-6-methoxyquinoxaline] |  | 28.3
32 | O=C(NCc1ccccn1)c1ccc2nc(-c3ccco3)c(-c3ccco3)nc2c1 [2,3-di-2-furyl-N-(pyridin-2-ylmethyl)quinoxaline-6-carboxamide] | 7.22 | 
33 | O=C(Nc1ccccc1)c1ccc2nc(-c3ccco3)c(-c3ccco3)nc2c1 [2,3-di-2-furyl-N-phenyl-6-quinoxalinecarboxamide] |  | 18.2
34 | c1coc(C2=Nc3cccc4cccc(c34)N2)c1 [2-(2-furanyl)-1H-perimidine] |  | 6.62
35 | COc1ccc(CC(=O)Nc2ccc(-c3nc4cc(C)ccc4o3)c(O)c2)cc1OC [2-(3,4-dimethoxyphenyl)-N-[(4Z)-3-keto-4-(5-methyl-3H-1,3-benzoxazol-2-ylidene)cyclohexa-1,5-dien-1-yl]acetamide] | 10.1 | 
